Structures can show the parent of a compound that is named as a salt.
Assays:
[1] = system: mouse partial sciatic nerve ligation model; test: Mouse partial sciatic nerve ligation model (Seltzer model), von Frey test; assay type: in vivo, Crl: CD1 (ICR) mice; conditions: oral administration seven days after ligation; 0.01 to 10 mg/kg depending on compound, pregabalin 10 mg/kg; 1, 2, 3 hours after administration; versus partial sciatic nerve ligation+distilled water group
Method: Using a partial sciatic nerve ligation model (Seltzer model) in mice by which neuropathic pain can be evaluated, the analgesic action of a cyclic amine derivative (I) or a pharmacologically acceptable salt thereof was investigated.
The mouse partial sciatic nerve ligation model was prepared in accordance with the method of Seltzer et al. (Malmberg et al., Pain, vol. 76, p. 215-222, 1998).
Crl: CD1 (ICR) mice (5 weeks old, male; from CHARLES RIVER LABORATORIES JAPAN, INC.) was anesthetized with sodium pentobarbital (70 mg/kg, intraperitoneal administration). The sciatic nerve at the femoral region of the right hind paw of each mouse was exposed and triply ligated tightly with silk suture of 8-0 (from NATSUME […]., LTD.) under a stereomicroscope so that only half thickness of the nerve was trapped in the ligature. A group of mice thus treated was designated as a partial sciatic nerve ligation group. A group of mice whose sciatic nerve was just exposed and not ligated was designated as a sham surgery group.
Evaluation of neuropathic pain (hereinafter referred to as von Frey test) was performed as follows. Mice were conditioned for at least one hour in an acrylic cage for measurement (from NATSUME […]. LTD.) placed on a wire net. Thereafter, using a filament (from North Coast Medical or neuroscience) which exerted a pressure of 0.16 g, the mice were subjected to mechanical tactile stimulus by applying the filament to the plantar surface of the right hind paw 3 times, each for 3 seconds, with an interval of 3 seconds.
Seven days after the sciatic nerve ligation surgery, the compound of Example 4, 6, 8, 10, 12, 14, 16, 18 or 20 (1 to 10 mg/kg for each of the compounds of Examples 4, 6 and 8, 0.1 to 10 mg/kg for each of the compounds of Examples 16 and 18, 0.01 to 10 mg/kg for each of the compounds of Examples 10, 12 and 14; and 0.1 to 1 mg/kg for the compound of Example 20) or pregabalin as a positive control (10 mg/kg; KEMPROTEC) was dissolved in distilled water and orally administered to mice of the partial sciatic nerve ligation group. The groups of the partial sciatic nerve ligation mice to which the compound of Example 4, 6, 8, 10, 12, 14, 16, 18 or 20 was administered were designated as a “partial sciatic nerve ligation+the compound of Example 4” group; a “partial sciatic nerve ligation+the compound of Example 6” group; a “partial sciatic nerve ligation+the compound of Example 8” group; a “partial sciatic nerve ligation+the compound of Example 10” group; a “partial sciatic nerve ligation+the compound of Example 12” group; a “partial sciatic nerve ligation+the compound of Example 14” group; a “partial sciatic nerve ligation+the compound of Example 16” group; a “partial sciatic nerve ligation+the compound of Example 18” group; and a “partial sciatic nerve ligation+the compound of Example 20” group, respectively. The partial sciatic nerve ligation mouse group to which pregabalin was administered, was designated as a “partial sciatic nerve ligation+pregabalin” group. Also, the partial sciatic nerve ligation mouse group to which distilled water was orally administered, was designated as a “partial sciatic nerve ligation+distilled water” group. The sham surgery mouse group to which distilled water was orally administered was designated as a “sham surgery+distilled water” group.
The von Frey test was carried out before oral administration of a test compound (pre-value), one hour, two hours and three hours after the oral administration of a test compound.
In the figures, the vertical axis represents the total score (mean value±standard error; n=5 to 6 in FIGS. 1 to 9) in the von Frey test. The higher numerical value indicates stronger pain. The horizontal axis represents time (hr) after administration of a test compound. […]

[2] = system: fibromyalgia syndrome model rats; test: Fibromyalgia syndrome model in rats (acidic saline), allodynia by von Frey filament; assay type: in vivo, Crl: CD(SD) rat; conditions: oral administration; Example 6 10 to 100 mg/kg, Example 18 1 to 100 mg/kg, pregabalin 10 mg/kg; 1 and 3 hours after administration; versus acidic saline+distilled water group
Excerpt: Using a fibromyalgia syndrome model in rats by which fibromyalgia syndrome can be evaluated, the analgesic action of a cyclic amine derivative (I) or a pharmacologically acceptable salt thereof was investigated.
To prepare a fibromyalgia syndrome model rat (Sluka et al., Journal of Pharmacology and Experimental Therapeutics, vol. 302, p. 1146-1150, 2002; Nagakura et al., Pain, vol. 146, p. 26-33, 2009; Sluka et al., Pain, vol. 146, p. 3-4, 2009), which is generally employed widely in basic research for fibromyalgia syndrome, acidic saline (100 μL) adjusted to pH4.0 was intramuscularly injected to the gastrocnemius muscle of the right hind paw of Crl: CD(SD) rat (6 to 7 weeks old, male; from CHARLES RIVER LABORATORIES JAPAN, INC.) under continuous inhalation anesthesia with isoflurane, twice (once in each day of Day 1 and Day 6, wherein Day 1 was the date on which the acidic saline was initially administrated). The rats thus prepared were raised in a breeding room controlled at an indoor temperature of 21 to 25° C. and an indoor humidity of 40 to 70% under the conditions of voluntary intake of food and water. In the same manner, rats to which physiological saline in place of acidic saline was intramuscularly injected were raised. The rats thus raised and not afflicted with fibromyalgia syndrome (“physiological saline+distilled water” group in FIG. 10 or 11) were also used in the experiment.
Seven days after the initial administration of acidic saline, allodynia in each rat was measured. […]
The compounds of Examples 6 and 18 (10 to 100 mg/kg for the compound of Example 6; 1 to 100 mg/kg for the compound of Example 18) were separately dissolved in distilled water and orally administered to fibromyalgia model rats (“acidic saline+the compound of Example 6” in FIG. 10 and “acidic saline+the compound of Example 18” in FIG. 11). […] In one hour and three hours after the oral administration, allodynia in individual rats was measured to evaluate an analgesic action. […]

SMILES: CCCCCCOC(=O)CCn1ccnc1CCC(=O)N1CC[C@H](N(C)C)C1 [Example 4, n-hexyl (S)-3-(2-(3-(3-(dimethylamino)pyrrolidin-1-yl)-3-oxopropyl)-1H-imidazol-1-yl)propanoate hydrochloride]
- analgesic action, total score in the von Frey test [1]: statistically significant analgesic action

SMILES: CCCCCCCOC(=O)CCn1ccnc1CCC(=O)N1CC[C@H](N(C)C)C1 [Example 6, n-heptyl (S)-3-(2-(3-(3-(dimethylamino)pyrrolidin-1-yl)-3-oxopropyl)-1H-imidazol-1-yl)propanote hydrochloride]
- analgesic action, total score in the von Frey test [1]: statistically significant analgesic action
- allodynia, 50% response threshold (mean value of the right hind paw and the left hind paw) [2]: statistically significantly improved

SMILES: CCCCCCCCOC(=O)CCn1ccnc1CCC(=O)N1CC[C@H](N(C)C)C1 [Example 8, n-octyl (S)-3-(2-(3-(3-(dimethylamino)pyrrolidin-1-yl)-3-oxopropyl)-1H-imidazol-1-yl)propanoate hydrochloride]
- analgesic action, total score in the von Frey test [1]: statistically significant analgesic action

SMILES: CCCOC(=O)Cn1ccnc1CCC(=O)N1CCC(N2CCOCC2)CC1 [Example 10, n-propyl 2-(2-(3-(4-morpholinopiperidin-1-yl)-3-oxopropyl)-1H-imidazol-1-yl)acetate hydrochloride]
- analgesic action, total score in the von Frey test [1]: statistically significant analgesic action

SMILES: CCCCOC(=O)Cn1ccnc1CCC(=O)N1CCC(N2CCOCC2)CC1 [Example 12, n-butyl 2-(2-(3-(4-morpholinopiperidin-1-yl)-3-oxopropyl)-1H-imidazol-1-yl)acetate hydrochloride]
- analgesic action, total score in the von Frey test [1]: statistically significant analgesic action

SMILES: CCCCCOC(=O)Cn1ccnc1CCC(=O)N1CCC(N2CCOCC2)CC1 [Example 14, n-pentyl 2-(2-(3-(4-morpholinopiperidin-1-yl)-3-oxopropyl)-1H-imidazol-1-yl)acetate hydrochloride]
- analgesic action, total score in the von Frey test [1]: statistically significant analgesic action

SMILES: CCCCCCOC(=O)Cn1ccnc1CCC(=O)N1CCC(N2CCOCC2)CC1 [Example 16, n-hexyl 2-(2-(3-(4-morpholinopiperidin-1-yl)-3-oxopropyl)-1H-imidazol-1-yl)acetate hydrochloride]
- analgesic action, total score in the von Frey test [1]: statistically significant analgesic action

SMILES: CCCCCCCOC(=O)Cn1ccnc1CCC(=O)N1CCC(N2CCOCC2)CC1 [Example 18, n-heptyl 2-(2-(3-(4-morpholinopiperidin-1-yl)-3-oxopropyl)-1H-imidazol-1-yl)acetate hydrochloride]
- analgesic action, total score in the von Frey test [1]: statistically significant analgesic action
- allodynia, 50% response threshold (mean value of the right hind paw and the left hind paw) [2]: statistically significantly improved

SMILES: CCCCCCCCOC(=O)Cn1ccnc1CCC(=O)N1CCC(N2CCOCC2)CC1 [Example 20, n-octyl 2-(2-(3-(4-morpholinopiperidin-1-yl)-3-oxopropyl)-1H-imidazol-1-yl)acetate hydrochloride]
- analgesic action, total score in the von Frey test [1]: statistically significant analgesic action

SMILES: CC(C)C[C@H](CN)CC(=O)O [pregabalin, reference compound]
- analgesic action, total score in the von Frey test [1]: statistically significant analgesic action
- allodynia, 50% response threshold (mean value of the right hind paw and the left hind paw) [2]: statistically significantly improved
